Source: US20260224582A1, “Heterobicyclic amides as inhibitors of CD38” (Cerevance, Inc., priority 2022, published 2026)

How the values were obtained:
Recombinant mouse CD38 = target: T1, Recombinant mouse CD38 (Mus musculus, UniProt P56528); assay: Mouse CD38 hydrolase assay (fluorescence-based, ε-NAD substrate); format: biochemical; details: recombinant mouse CD38 0.4 nM, 12 μM ε-NAD, 30 min preincubation at 25° C.
T1 sequence (P56528 1-304): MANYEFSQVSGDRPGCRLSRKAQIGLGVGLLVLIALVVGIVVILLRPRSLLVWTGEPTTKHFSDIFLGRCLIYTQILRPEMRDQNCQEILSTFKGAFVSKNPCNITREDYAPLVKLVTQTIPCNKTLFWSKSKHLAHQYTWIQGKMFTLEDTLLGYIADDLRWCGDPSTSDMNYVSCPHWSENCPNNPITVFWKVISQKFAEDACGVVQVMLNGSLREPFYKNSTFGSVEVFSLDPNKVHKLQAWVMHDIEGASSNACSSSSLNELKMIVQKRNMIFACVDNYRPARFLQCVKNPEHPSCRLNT
Description: The ability of test compounds to inhibit mouse CD38 hydrolase activity was measured in a fluorescence-based assay using non-physiological NAD^+ substrate analogue 1,N^6-etheno NAD^+ (&-NAD). Recombinant mouse CD38 (0.4 nM) was preincubated with test compounds in 384-well black microplates for 30 min at 25° C. in PBS (—Ca^2+/Mg^2+) containing 0.005% BSA (pH 7.4). CD38 hydrolase activity was initiated by addition of 12 μM ε-NAD, which yields the fluorescent product 1,N^6-etheno ADP-ribose. Formation of fluorescent product was followed using ClarioStar Plus (BMG) microplate reader by reading fluorescence (excitation λ=300 nm; emission λ=410 nm) at two time points, one immediately after substrate addition (t=0) and one at 6 min (t=6).
Data was analysed by subtracting the values detected at t=0 from t=6 to correct for variation in baseline fluorescence. Fluorescence values were converted to percent inhibition using the average of high signal (CD38 and ε-NAD) and low signal (CD38 and ε-NAD in the presence of a tool CD38 inhibitor) control wells. IC50 values were determined from a 10-point, halflog concentration response curve with a four-parameter logistic equation.

Recombinant human CD38 = target: T2, Recombinant human CD38 (Homo sapiens, UniProt P28907); assay: Human CD38 hydrolase assay (fluorescence-based, ε-NAD substrate); format: biochemical; details: recombinant human CD38 0.8 nM, 4 μM ε-NAD, 30 min preincubation at 25° C.
T2 sequence (P28907 1-300): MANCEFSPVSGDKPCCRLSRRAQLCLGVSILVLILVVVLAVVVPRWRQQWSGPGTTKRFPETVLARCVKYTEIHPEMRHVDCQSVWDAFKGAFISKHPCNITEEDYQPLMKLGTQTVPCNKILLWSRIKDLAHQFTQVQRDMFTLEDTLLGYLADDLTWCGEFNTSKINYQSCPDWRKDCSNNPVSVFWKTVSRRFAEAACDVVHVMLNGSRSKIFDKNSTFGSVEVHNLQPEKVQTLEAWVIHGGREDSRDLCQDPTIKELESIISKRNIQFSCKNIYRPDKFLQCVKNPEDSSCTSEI
Description: The ability of test compounds to inhibit human CD38 hydrolase activity was measured in a fluorescence-based assay using non-physiological NAD^+ substrate analogue 1,N^6-etheno NAD^+ (ε-NAD). Recombinant human CD38 (0.8 nM) was preincubated with test compounds in 384-well black microplates for 30 min at 25° C. in PBS (—Ca^2+/Mg^2+) containing 0.005% BSA (pH 7.4). CD38 hydrolase activity was initiated by addition of 4 μM ε-NAD, which yields the fluorescent product 1,N^6-etheno ADP-ribose. Formation of fluorescent product was followed using ClarioStar Plus (BMG) microplate reader by reading fluorescence (excitation λ=300 nm; emission λ=410 nm) at two time points, one immediately after substrate addition (t=0) and one at 10 min (t=10). Data was analysed by subtracting the values detected at t=0 from t=10 to correct for variation in baseline fluorescence. Fluorescence values were converted to percent inhibition using the average of high signal (CD38 and ε-NAD) and low signal (CD38 and ε-NAD in the presence of a tool CD38 inhibitor) control wells. IC50 values were determined from a 10-point, half log concentration response curve with a four-parameter logistic equation.

Row | IC50 (Recombinant mouse CD38) | IC50 (Recombinant human CD38) | Compound
1 | ≤ 40 nM | ≤ 1000 nM | CC(F)(F)CN[C@H]1CC[C@H](NC(=O)c2cn3ncnc3c(-n3ccnc3)n2)CC1 [Example 57, N-((1r,4r)-4-((2,2-difluoropropyl)amino)cyclohexyl)-8-(1H-imidazol-1-yl)-[1,2,4]triazolo[1,5-a]pyrazine-6-carboxamide]
2 | ≤ 40 nM | ≤ 100 nM | O=C(N[C@H]1CC[C@H](N2CC[C@@H](F)C2)CC1)c1nc(-n2ccnc2)nc2ncccc12 [Example 58, N-((1R,4r)-4-((R)-3-fluoropyrrolidin-1-yl)cyclohexyl)-2-(1H-imidazol-1-yl)pyrido[2,3-d]pyrimidine-4-carboxamide]
3 | ≤ 40 nM | ≤ 40 nM | O=C(N[C@H]1CC[C@H](NCC(F)(F)F)CC1)c1nc(-n2ccnc2)cn2ncnc12 [Example 59, 6-(1H-imidazol-1-yl)-N-((1r,4r)-4-((2,2,2-trifluoroethyl)amino)cyclohexyl)-[1,2,4]triazolo[1,5-a]pyrazine-8-carboxamide]
4 | ≤ 40 nM | ≤ 40 nM | N-((1r,4r)-4-((2,2-difluoroethyl)amino)cyclohexyl)-2-(1H-imidazol-1-yl)pyrido[2,3-d]pyrimidine-4-carboxamide [Example 33]
